Data as given in patent publication US6303641A, “Cyanoamidines as cell proliferation inhibitors” (Leo Pharmaceuticals Products Ltd., priority 1997, dated 2001).

What was measured:
[1] = system: human small cell lung carcinoma (NYH); experiment: Inhibition of tumour cell proliferation in vitro ([3H]thymidine incorporation), NYH; type: cell-based; settings: 24 hours, read-out: The median inhibition concentration (IC50, nM) of NYH
Procedure: (§1) The inhibition of tumour cell proliferation was studied using different types of human cancer cell lines. The cell lines under investigation were small cell lung carcinoma (NYH), and breast cancer (MCF-7) using the following general procedure.
(§2) The cells were cultured in vitro for 24 hours in the presence of the compound under investigation. DNA synthesis was measured by incorporation of [3H]thymidine, and the median inhibitory concentrations (IC50) of the compounds were calculated.

[2] = system: human breast cancer (MCF-7); experiment: Inhibition of tumour cell proliferation in vitro ([3H]thymidine incorporation), MCF-7; type: cell-based; settings: MCF7, 24 hours, read-out: The median inhibition concentration (IC50, nM) of MCF-7
Procedure: as §1, §2

[3] = system: Yoshida sarcoma cells; experiment: Survival of Yoshida tumour-bearing rats (Increased Life Span); type: in vivo, LEW/Mol inbred female rats; settings: once daily from day 3
Procedure: The prolongation of survival time of tumour-bearing rats was studied in LEW/Mol inbred female rats inoculated with Yoshida sarcoma cells in a number of 2×10^7 cells. Tumour-bearing rats (6 animals per group) were dosed orally once daily from day 3 after the transfer of tumour cells and until death or until the body-weights had increased by 10% as a consequence of tumour proliferation. The mean survival day of treated versus non-treated rats is used to calculate ILS (Increased Life Span). ILS=((mean treated/mean control)-1)*100%.

Structure (SMILES) | IC50 [1] [nM] | IC50 [2] [nM] | Increased life span (ILS) ([3]; 50 mg/kg p.o.) [%] | Increased life span (ILS) ([3]; 10 mg/kg p.o.) [%] | Increased life span (ILS) ([3]; 20 mg/kg p.o.) [%] | Increased life span (ILS) ([3]; 30 mg/kg p.o.) [%]
N#CNC(=Nc1ccncc1)NCCCCCOc1ccccc1 [Prior art C, N-Cyano-N'-(5-phenoxypentyl)-N"-4-pyridylguanidine, reference compound] | 45 | 250 | 35 |  |  | 
N#CNC(=Nc1ccncc1)NCCCCOc1ccccc1 [Prior art B, N-Cyano-N'-(4-phenoxybutyl)-N"-4-pyridylguanidine, reference compound] | 380 | 920 |  |  |  | 
COc1ccccc1OCCCCCCNC(=NC#N)c1cccnc1 [Example no. 2, N^2 -Cyano-N^1-(6-(2-methoxyphenoxy)hexyl)-3-pyridinecarboxamidine] | 340 | 540 |  |  |  | 
CCCCCCCCNC(=NC#N)c1cccnc1 [Prior art A, N^2 -Cyano-N^1-octyl-3-pyridinecarboxamidine, reference compound] |  | 10000 |  |  |  | 
N#CN=C(NCCCCCCOc1ccc(Cl)cc1)c1cccnc1 [Example no. 1, N^2 -Cyano-N^1-(6(4-chlorophenoxy)hexyl)-3-pyridinecarboxamidine] | 39 | 350 |  | 60 | 90 | 102
N#CN=C(NCCCCCCOc1ccc2c(c1)OCO2)c1cccnc1 [Example no. 3, N^2 -Cyano-N^1-(6-(3,4-methylenedioxyphenoxy)hexyl)-3-pyridinecarboxamidine] | 350 | 740 |  |  |  | 
